Data reported in ChEMBL document CHEMBL1158648, “The Lignans of Polygala polygama (Polygalaceae): Deoxypodophyllotoxin and Three New Lignan Lactones” (1979).

Tested on: P388
Test: In vivo antitumor activity against mouse P388 cells at 40 mg/kg
Assay type: functional

Row | SMILES | T/C
1 | COc1cc([C@@H]2c3cc4c(cc3[C@H](O)[C@H]3COC(=O)[C@H]23)OCO4)cc(OC)c1O | 144%
2 | COc1ccc2c(c1OC)[C@@H](c1ccc3c(c1)OCO3)C1=C(COC1=O)C2 | 144%
3 | COc1cc([C@@H]2c3cc4c(cc3C[C@H]3COC(=O)[C@@H]32)OCO4)cc(OC)c1OC [DESOXYPODOPHYLLOTOXIN] | 144%
4 | COc1cc([C@@H]2c3cc4c(cc3[C@H](O)[C@H]3COC(=O)[C@H]23)OCO4)cc(OC)c1OC [PODOFILOX] | 144%
5 | O=C1OC[C@@H]2Cc3cc4c(cc3[C@@H](c3ccc5c(c3)OCO5)[C@@H]12)OCO4 [POLYGAMAIN] | 144%
6 | COc1ccc2c(c1OC)[C@@H](c1ccc3c(c1)OCO3)[C@H]1C(=O)OC[C@@H]1C2 [POLYGAMATIN] | 144%
